The source of these data is patent US6610716B2, “Cyanomethyl substituted thiazoliums and imidazoliums and treatments of disorders associated with protein aging” (Alteon Incorporated, priority 2000, dated 2003).

The conditions of data set [1]: use of chlorhexidine; cited from earlier work.
The conditions of data set [2]: streptozotocin-diabetic rat model; cited from earlier work.
The next data set deals with red blood cells. The settings on record: in vivo; cited from earlier work.
The conditions of data set [3]: diabetic rats; cited from earlier work.
For data set [4] the following is noted: in vivo; cited from earlier work.
Another data set is described as follows: Phase Ia clinical trial. In kind it is in vivo, human. The source says: When the heart pumps blood into the vascular system, the ability of the arteries to expand helps to push blood through the body. When arteries become stiff, as they do in the natural process of aging. the ability of the arteries to expand is diminished and also has consequences for the heart. The heart has to work harder to pump the blood into the stiff arteries, and eventually hypertrophies (enlarges in size) to accomplish this. A hypertrophied heart is an inefficient pump, and is one of the disorders that leads to congestive heart failure. […] The potential clinical benefit of this is to lessen the effort that the heart must expend to push blood throughout the body. The effect is also believed to contribute to preventing hypertrophy and subsequent inefficiency of the heart, which inefficiency would contribute to congestive heart failure.
Atherosclerosis is a disease that involves deposition of blood lipids in plaque in the arteries throughout the body. In coronary arteries, accumulation of plaque progressively leads to reduced coronary flow, with occlusion of the arteries causing focal death of cardiac tissue (myocardial infarction, heart attack). If the amount of tissue that dies is large enough, death ensures. In a Phase Ia trial, one compound believed to work by a mechanism shared by the compounds of the invention, 3-[2-phenyl-2-oxoethyl]-4,5-dimethyl-thiazolium salt, […] the amount of circulating triglycerides (lipids). […] Reducing local deposits of plaque should eventually lessen the risk of myocardial infarction and death due to heart attacks.
Pulse pressure is the difference between systolic and diastolic blood pressure. In a young human, systolic pressure is typically 120 mm Hg and diastolic pressure is 80 mm Hg, resulting in a pulse pressure of 40 mm Hg. With age, in many individuals pulse pressure increases, largely due to the increase in systolic pressure that results from stiff vessel disease. In individuals with pulse pressure greater than 60 mm Hg there is an increased risk of death from cardiovascular morbidities.

Data set [5] in a line: In vivo studies of vascular stiffening and cardiovascular collagen. Details: species or system rodents, canines and primates. The source says: (§1) Cardiovascular risk correlates more closely with the systolic and the pulse pressure than with the diastolic pressure. In diabetic patients, the cardiovascular risk profile of diabetic patients is strongly correlated to duration of diabetes, glycemic control and blood pressure. Structural matrix proteins contribute to the function of vessels and the heart, and changes in the physical behavior of cardiovascular walls are believed to be important determinants of circulatory function. In elderly individuals, the loss of compliance in the aorta leads to isolated systolic hypertension, which in turn expands the arterial wall and thereby diminishes the dynamic range of elasticity. […] Treatment with 3-[2-phenyl-2-oxoethyl]-4,5-dimethyl-thiazolium salt lead to a reduction in the mass of collagen in cardiovascular tissues.

Data set [6] can be described thus: Dog model for diabetes, indicators of ventricular elasticity. Format: in vivo.
Text: as §1

The subject of the next data set is Type IV collagen. Description: In situ hybridization studies. In kind it is in vivo.
Text: as §1

The subject of a further data set is TGFbeta. Kind of data set: In situ hybridization studies. In kind it is in vivo.
Text: as §1

Structures can show the parent of a compound that is named as a salt.

One may read the melting point as the temperature, or range, at which the solid turns liquid. On to `Cc1sc[n+](CC#N)c1C.[Br-]`, for which the melting point was 184 to 186 °C (dec.).

On to `[H]/N=C(\N/C(=N/[H])NCCCCCCNC(=N)NC(=N)Nc1ccc(Cl)cc1)Nc1ccc(Cl)cc1` [chlorhexidine], for which the dental pellicle entry in data set [1] is listed as “increased dental pellicle”.

On to `N=C(N)NN` [aminoguanidine], for which, in [2], the “increased glomerular basement membrane thickness” value is “prevented”. The “diabetes-induced changes in the deformability of red blood cells” value with red blood cells is “prevent, treat or reverse such changes”. The “aortic wall protein cross-linking” value in [3] is on record as “diminishes”. Moreover, the “immunoglobulin trapping in the kidney” value in [4] was “reduction”.

In the case of `Cc1sc[n+](CC(=O)c2ccccc2)c1C` [3-[2-phenyl-2-oxoethyl]-4,5-dimethyl-thiazolium salt], in “Phase Ia clinical trial” (Phase Ia clinical trial), the “stiffness of arteries, as measured by the ratio of stroke volume (ml) to pulse pressure (mm Hg)” value is listed as “reverse the stiffness of arteries”. For the same compound, the “amount of circulating triglycerides (lipids)” value in the data set “Phase Ia clinical trial” (Phase Ia trial) is listed as “increased”. The systolic blood pressure result in “Phase Ia clinical trial” (Phase Ia trial, believed primary cause of the pulse pressure decrease) is listed as “lowering the systolic blood pressure”. The pulse pressure entry in “Phase Ia clinical trial” (Phase Ia trial, elderly patients with pulse pressures greater than 60 mm Hg, statistically significant) was “reduced pulse pressure”. Also, in [5] (in vivo), the “mass of collagen in cardiovascular tissues” value is recorded as “reduction”. In addition, in [5] (in vivo studies in rodents, canines and primates), the vascular stiffening result is “substantially ameliorating vascular stiffening”. For the same compound, in data set [6], the end diastolic pressure result was “returned to a value at about the mid-point between the disease impaired value and the value for control dogs”; the end diastolic volume result is “returned to a value at about the mid-point between the disease impaired value and the value for control dogs”. The “expression of Type IV collagen” value in the data set on Type IV collagen is “reduces the expression”. The “expression of TGFbeta” value in the data set on TGFbeta is recorded as “reduces the expression”.

Regarding `N#CC[n+]1csc2c1CCCC2.[Br-]`, the melting point was 215 to 217 °C (dec.).
